Test results reported in US12116636B2, “Methods for evaluating tumor cell spheroids using 3D microfluidic cell culture device” (Dana-Farber Cancer Institute, Inc., priority 2017, dated 2024).
Where two headings read alike, the source gives them in different places.

How the values were obtained:
[1] = biological target: off-target kinases (Homo sapiens, UniProt Q16644); assay: SelectScreen Kinase Profiling, biochemical single point inhibition; conditions: MAPKAPK3, ATP Km app, ZLYTE
Protocol: (§1) Biochemical single point inhibition and IC50 concentrations for TBK1, IKKε (IKBKE), and off-target kinases were determined at ThermoFisher Scientific using SelectScreen Kinase Profiling Services (Madison, WI, USA) (Tables S4A and S4B-1-7). To determine cellular potency, the human colorectal cancer carcinoma cell line HCT116 (ATCC, Manassas, VA) was maintained in T175 flasks in complete RPMI medium; RPMI 1640 supplemented with 10% FBS, 1× Penicillin-Streptomycin solution and 1× MEM (non-essential amino acids). HCT116 cells were grown to 90-95% confluency in T175 flasks containing complete RPMI medium and transfected in bulk using Lipofectamine 2000 (Invitrogen, Carlsbad, CA) with 70 μg of ISG54-luciferase reporter plasmid (Elim Biopharmaceuticals Inc., Hayward, CA). The reporter plasmid contains a luciferase gene expression cassette under the transcriptional regulation of the promoter of the human interferon stimulated gene 54 (ISG54). Transfection of the cells was allowed to take place for 6 hours, after which the cells were harvested by treatment with 0.25% trypsin EDTA (Corning Inc., Corning, NY). Trypsinized cells were added to 384-well poly-d-lysine treated black clear bottom tissue culture assay plates (Greiner Bio-One GmbH, Kremsmunster, Austria) at a density of 20,000 cells/well in 80 μL of complete RPMI medium and incubated overnight. After 16-18 hours post-transfection, the assay plates were washed with PBS (Corning Inc., Corning, NY), followed by addition of 80 μL/well of serum-free RPMI 1640 medium containing 1× Penicillin-Streptomycin solution, 1× MEM and 350 nL of DMSO or titrations of Compound 1. Compound 1 titrations were generated by 1.5-fold dilution steps in two overlapping serial dilution series to generate a 40-point compound dose range. After incubation at 37° C. for 1 hour, the cells were stimulated with Poly(I:C) (InvivoGen, San Diego, CA) at a final concentration of 15 μg/mL in Optimem media (Life Technologies, Rockville, MD). The assay plates were incubated for 5 hours at 37° C., followed by addition of One-Glo luciferase firefly reagent (Promega, Madison, WI) at 1:1 volume/well and luminescence was measured in an EnVision Multilabel Plate Reader (PerkinElmer, Santa Clara, CA). The EC50 values were calculated from the fit of the dose-response curves to a four-parameter equation. All EC50 values represent geometric mean values of a minimum of four determinations.

[2] = tested on: off-target kinases; assay: as above; conditions: 1000 μM
Protocol: as §1

[3] = tested on: CT26 MDOTS; assay: Bead-based cytokine profiling of MDOTS conditioned media; type: cell-based, murine; conditions: Cmpd1 1 μM ± anti-PD-1 10 μg/mL
Protocol: Fresh tumor specimens (murine and human patients) were received in media (DMEM) on ice and minced in a 10 cm dish (on ice) using sterile forceps and scalpel. Minced tumor was resuspended in DMEM (4.5 mM glucose, […] sodium pyruvate, 1:100 penicillin-streptomycin) (Coming CellGro, Manassas, VA)+10% FBS (Gemini Bio-Products, West Sacramento, CA), 100 U/mL collagenase type IV (Life Technologies, Carlsbad, CA), and 15 mM HEPES (Life Technologies, Carlsbad, CA), except for CT26 tumors that were prepared in RPMI. Samples were pelleted and resuspended in 10-20 mL media. Red blood cells were removed from visibly bloody samples using RBC Lysis Buffer (Boston Bio-Products, Ashland, MA). […]
Two multiplex assays were performed utilizing a bead-based immunoassay approach, the Bio-Plex Pro™ Human Cytokine 40-plex Assay (Cat #171AK99MR2) and Bio-Plex Pro™ Mouse Cytokine Panel 1, 23-plex (Cat #M60009RDPD) on a Bio-plex 200 system (Cat #171000201). […] Fold changes relative to the MDOT/PDOT control were calculated and plotted as log 2FC. Lower and upper limits of quantitation (LLOQ/ULOQ) were imputed from standard curves for cytokines above or below detection. […]

[4] = EGFR (ErbB1) d746-750 (mutant), LanthaScreen Binding
[5] = PRKCB2 (PKC beta II), ATP Km app, ZLYTE
[6] = TEK (TIE2) mutant (mutation name not given), LanthaScreen

Sequence of off-target kinases (Homo sapiens, UniProt Q16644) (Q16644 whole entry): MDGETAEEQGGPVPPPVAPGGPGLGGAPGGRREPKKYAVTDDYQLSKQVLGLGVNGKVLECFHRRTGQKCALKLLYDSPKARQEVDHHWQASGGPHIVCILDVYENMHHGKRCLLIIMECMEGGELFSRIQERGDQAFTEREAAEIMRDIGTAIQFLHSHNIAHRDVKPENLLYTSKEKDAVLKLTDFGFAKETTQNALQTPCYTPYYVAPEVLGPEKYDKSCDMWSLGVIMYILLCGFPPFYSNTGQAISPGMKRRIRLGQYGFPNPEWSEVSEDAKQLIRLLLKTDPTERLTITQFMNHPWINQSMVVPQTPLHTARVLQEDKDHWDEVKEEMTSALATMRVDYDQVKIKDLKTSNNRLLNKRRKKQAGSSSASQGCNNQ

SMILES: N#Cc1cc(-c2ncnc(Nc3ccc(N4CCN(C5COC5)CC4)cc3)n2)ccc1OC1CCOCC1 [Compound 1, 5-(4-((4-(4-(oxetan-3-yl)piperazin-1-yl)phenyl)amino)-1,3,5-triazin-2-yl)-2-((tetrahydro-2H-pyran-4-yl)oxy)benzonitrile]
- inhibition ([1]; read-out: % Inhibition 1): 1%
- inhibition ([1]; read-out: % Inhibition 2): -8%
- inhibition ([1]; read-out: % Inhibition Avg): -3%
- % Inhibition 1 [2, 4]: 14%
- % Inhibition 2 [2, 4]: 13%
- % Inhibition Avg [2, 4]: 14%
- % Inhibition 1 ([2]; FLT3 ITD, LanthaScreen Binding): 64%
- % Inhibition 2 ([2]; FLT3 ITD, LanthaScreen Binding): 62%
- % Inhibition Avg ([2]; FLT3 ITD, LanthaScreen Binding): 63%
- % Inhibition 1 ([2]; FYN A, LanthaScreen Binding): 16%
- % Inhibition Avg ([2]; FYN A, LanthaScreen Binding): 18%
- % Inhibition 1 ([2]; LYN B, ATP Km app, ZLYTE): 56%
- % Inhibition 2 ([2]; LYN B, ATP Km app, ZLYTE): 50%
- % Inhibition Avg ([2]; LYN B, ATP Km app, ZLYTE): 53%
- % Inhibition 2 ([2]; MAP3K7/MAP3K7IP1 (TAK1-TAB1), LanthaScreen Binding): 22%
- % Inhibition 1 [2, 5]: 12%
- % Inhibition 2 [2, 5]: 8%
- % Inhibition Avg [2, 5]: 10%
- % Inhibition 1 ([2]; SRC N1, ATP Km app, ZLYTE): 54%
- % Inhibition 2 ([2]; SRC N1, ATP Km app, ZLYTE): 60%
- % Inhibition Avg ([2]; SRC N1, ATP Km app, ZLYTE): 57%
- % Inhibition 1 [2, 6]: 40%
- % Inhibition 2 [2, 6]: 41%
- % Inhibition Avg [2, 6]: 41%
- levels of CCL4, CCL3, and IL-10 in CT26 MDOTS [3]: Decreased levels
